In article PMC12623744 (Scientific Reports, 2025):
Positions of bridges follow the written chain, without caps; N, C: chain ends. Non-standard residues stand in square brackets, D forms with d. Residues, ends and D or L forms follow the SMILES beside them. Nle = CCCC[C@H](N)C(=O)O

Experiments:
[1] = Peptide stability in medium (Jurkat E6.1 cell supernatant); format: in vitro ADME; settings: human, Jurkat E6.1 cell supernatant (conditioned culture medium), Jurkat E6.1 cell supernatant (RPMI 1640, 10% FBS), 1.5 mg/mL peptide, 37 °C with stirring, RP-HPLC peak area vs peptide in water at time 0, triplicate
Experimental: The inhibitory effects of the peptides were also evaluated using cell line-based platform, but before performing this tests, the stability of peptides in medium used in co-culture and cytotoxicity towards cell lines used in the experiments had to be determined. After 24 h of incubation (the time when the peptides are incubated with cells), there is a clear difference in stability between peptides based on one of the interaction centres (light1 and 2 – stability is 88% and 77% respectively) and between those based on the other centre (light3, 4 and 3_E178L – stability ranging from 49% to 29%). However, all peptides, despite some degradation, are present in the sample during the experiment (Figure S5).
HVEM light1 light light light _E178L
Figure S8 . SpS binding check experiments for selected LIGHT-derived peptides and HVEM compared to negative control (HVEM protein without any ligand). Dotted line represents three times the standard deviation range. […]
experiments. […]
Peptide stability was assessed using the supernatant from the Jurkat E6.1 cell line. […] The samples were analyzed by reverse-phase high-performance liquid chromatography (RP-HPLC) on a Kromasil C8 column ([…] × 4.6 mm, 5 μm) using a gradient of 5% to 100% solvent B over 60 minutes. […]
The cytotoxic effects of the peptides were evaluated on two cell lines: Jurkat E6.1 and TCS-Ctrl (a modified BW5147 cell line). […]

HVEM/LIGHT complex = test: Competitive ELISA, inhibition of HVEM/LIGHT complex formation; format: biochemical, human; settings: coated HVEM-His 6 µg/mL, LIGHT-Fc 2 µg/mL, highest concentration tested (50 µM)
Experimental: To assess the inhibitory properties of the peptides the ELISA was conducted. Based on the obtained results, it can be concluded that the inhibitory properties of the peptides are strongly correlated with their affinity to HVEM as determined by theoretical methods, as well as with those measured by SpS.
ELISA was conducted using transparent polystyrene 96-well plates (Brand, Wertheim, Germany). Wells were coated with HVEM-His protein at concentration 6 µg/mL dissolved in PBS-T (100 µL per well) and incubated overnight at 4 °C. Unbound sites on the wells by HVEM were blocked with 5% bovine serum albumin (BSA) in PBS-T (200 µL per well). Peptides at three concentrations 50 µM, 12.5 µM, and 3.125 µM dissolved in PBS-T were added and incubated (200 µL per well). […] In the next step horseradish peroxidase (HRP)-conjugated goat antibody (Bio-Rad, Hercules, USA) at dilution 1:3000 in PBS-T (100µL per well) was applied. After each step, wells were washed five times with 200 µL of PBS-T. Incubations were carried out at 37 °C for 2 h, except for the antibody, which was incubated for 1 h. Finally, 200 µL of TMB substrate (Thermo Fisher Scientific,Waltham, MA, USA) was added, and after 15 min of incubation in the dark, absorbance was measured at 492 nm and 650 nm using an Infinite M200 Pro reader (Tecan, Switzerland). The negative control consisted of PBS-T buffer without peptides, while the positive control was mouse anti-human HVEM antibodies (1 µg/well, Bio-Rad, Hercules, CA, USA; #MCA6072GA). Each experiment was performed in three biological replicates, each consisting of three technical replicates and data were analyzed using one-way ANOVA with Dunnett’s post-hoc test in GraphPad Prism (San Diego, USA).

[2] = test system: HVEM/LIGHT interaction (NF-κB::eGFP activation); test: Cellular reporter assay: JE6.1-NF-κB::eGFP HVEM reporter cells stimulated with TCS LIGHT; format: cell-based; settings: relative to co-culture without peptides = 100%; highest tested concentration (50 µM chosen as highest); 24 h co-culture; three experiments in triplicate
From the text: Reporter cells expressing the HVEM protein (JE6.1-NF-κB::eGFP HVEM) and T cell stimulators expressing LIGHT (TCS LIGHT) were utilized in cellular assays and the principle of this cell-based assay has been described in detail in previous publication. In short, when the peptides inhibited the HVEM/LIGHT interaction, a reduction in NF-κB activation was observed, accompanied by a corresponding decrease in enhanced green fluorescent protein (eGFP) levels. The percentage of reporter cell activation was calculated relative to a control condition, which was reporter cell co-cultured with TCS without peptides.
The experiments utilized the JE6.1-NF-κB::eGFP HVEM (modified Jurkat), TCS LIGHT, TCS Crtl and TCS CD86 Ctrl cell lines (modified BW5147) which have been described in earlier studies^57,58. Jurkat E6.1 cell line (describe in Supplementary Materials) was purchased from Cell Line Service GmbH, while the JE6.1-NF-κB::eGFP HVEM, TCS LIGHT, TCS Crtl and TCS CD86 Ctrl cell lines are property of the laboratory of Prof. […] The plates were incubated for 20 min at 4 °C, washed with FACS buffer (PBS, 5–10% FBS, 0.1% NaN₃), and resuspended in 50 µL of fresh FACS buffer. eGFP expression was measured using a CytoFLEX flow cytometer (Beckman Coulter, USA). Data were analyzed using FlowJo v10.10 (FlowJo LLC, USA) and GraphPad Prism (San Diego, USA) with univariate ANOVA and Dunnett’s post-hoc test. […]

| SMILES | remaining at 24 h, 1.5 mg/mL [1] | inhibition of HVEM/LIGHT complex formation (HVEM/LIGHT complex) | reporter cell activation level [2] |
| --- | --- | --- | --- |
| CCCC[C@H](NC(=O)[C@H](Cc1ccccc1)NC(=O)[C@H](C)NC(=O)CNC(=O)[C@@H]1CSSC[C@H](NC(=O)[C@@H](NC(=O)[C@@H](NC(=O)[C@H](CCC(=O)O)NC(=O)[C@H](CCC(=O)O)NC(=O)CNC(=O)[C@H](C)NC(=O)[C@H](CCC(=O)O)NC(C)=O)C(C)C)C(C)C)C(=O)N[C@@H](CCCNC(=N)N)C(=O)N[C@@H](C(C)C)C(=O)N[C@@H](CC(C)C)C(=O)N[C@@H](CC(=O)O)C(=O)N[C@@H](CCC(=O)O)C(=O)N[C@@H](CCCNC(=N)N)C(=O)N[C@@H](CC(C)C)C(=O)N[C@@H](C(C)C)C(=O)N[C@@H](CCCNC(=N)N)C(=O)N[C@@H](CC(C)C)C(=O)N[C@@H](CCCNC(=N)N)C(=O)N[C@@H](CC(=O)O)C(=O)NCC(=O)N[C@@H]([C@@H](C)O)C(=O)N[C@@H](CCCNC(=N)N)C(=O)N[C@@H](CO)C(=O)N[C@@H](Cc2ccc(O)cc2)C(=O)N1)C(=O)N[C@H](C(N)=O)C(C)C [light1] (Ac-EAGEEVVCRVLDERLVRLRDGTRSYCGAF[Nle]V-NH2; disulfide 8-26) | 88% | – | – |
| CC(=O)N[C@H](C(=O)N[C@H]1CSSC[C@@H](C(=O)N[C@@H](CO)C(N)=O)NC(=O)[C@H](CCC(N)=O)NC(=O)[C@H](CO)NC(=O)[C@H](C(C)C)NC(=O)[C@H](CC(C)C)NC(=O)[C@H](CC(C)C)NC(=O)[C@H](CCC(=O)O)NC(=O)[C@H](CC(C)C)NC(=O)[C@H](CCC(=O)O)NC(=O)[C@H](CCC(=O)O)NC(=O)[C@@H]2CCCN2C(=O)[C@H](Cc2ccc(O)cc2)NC(=O)[C@H](CCCNC(=N)N)NC(=O)[C@@H]2CCCN2C(=O)[C@H]([C@@H](C)O)NC(=O)[C@H](CCCNC(=N)N)NC(=O)[C@H](CCCCN)NC(=O)[C@H](Cc2ccc(O)cc2)NC(=O)[C@H](CC(C)C)NC(=O)CNC(=O)[C@H](Cc2c[nH]cn2)NC(=O)[C@H]([C@@H](C)O)NC1=O)[C@@H](C)O [light3] (Ac-TCTHGLYKRTPRYPEELELLVSQCS-NH2; disulfide 2-24) | – | 22% | 78% |
| CC(=O)N[C@@H](CCC(=O)O)C(=O)N[C@H]1CSSC[C@@H](C(=O)N[C@H](C(N)=O)C(C)C)NC(=O)[C@H](Cc2ccccc2)NC(=O)[C@H](C)NC(=O)CNC(=O)[C@H](Cc2ccccc2)NC(=O)[C@H](Cc2ccc(O)cc2)NC(=O)[C@H](CO)NC(=O)[C@H](CCCNC(=N)N)NC(=O)[C@H]([C@@H](C)O)NC(=O)CNC(=O)[C@H](CC(=O)O)NC(=O)[C@H](CCCNC(=N)N)NC(=O)[C@H](CC(C)C)NC(=O)[C@H](CCCNC(=N)N)NC(=O)[C@H](C(C)C)NC(=O)[C@H](CC(C)C)NC(=O)[C@H](CCCNC(=N)N)NC(=O)[C@H](CCC(=O)O)NC(=O)[C@H](CC(=O)O)NC(=O)[C@H](CC(C)C)NC(=O)[C@H](C(C)C)NC(=O)[C@H](CCCNC(=N)N)NC(=O)[C@H](C(C)C)NC(=O)[C@H](C(C)C)NC(=O)[C@H](C(C)C)NC(=O)[C@H](CCC(=O)O)NC(=O)[C@H](CCC(=O)O)NC(=O)CNC1=O [light2] (Ac-ECGEEVVVRVLDERLVRLRDGTRSYFGAFCV-NH2; disulfide 2-30) | 77% | – | – |
| CC(=O)N[C@H](C(=O)N[C@H]1CSSC[C@@H](C(=O)N[C@@H](CO)C(N)=O)NC(=O)[C@H](CCC(N)=O)NC(=O)[C@H](CO)NC(=O)[C@H](C(C)C)NC(=O)[C@H](CC(C)C)NC(=O)[C@H](CC(C)C)NC(=O)[C@H](CC(C)C)NC(=O)[C@H](CC(C)C)NC(=O)[C@H](CCC(=O)O)NC(=O)[C@H](CCC(=O)O)NC(=O)[C@@H]2CCCN2C(=O)[C@H](Cc2ccc(O)cc2)NC(=O)[C@H](CCCNC(=N)N)NC(=O)[C@@H]2CCCN2C(=O)[C@H]([C@@H](C)O)NC(=O)[C@H](CCCNC(=N)N)NC(=O)[C@H](CCCCN)NC(=O)[C@H](Cc2ccc(O)cc2)NC(=O)[C@H](CC(C)C)NC(=O)CNC(=O)[C@H](Cc2c[nH]cn2)NC(=O)[C@H]([C@@H](C)O)NC1=O)[C@@H](C)O [light3_E178L] (Ac-TCTHGLYKRTPRYPEELLLLVSQCS-NH2; disulfide 2-24) | – | 19% | 74% |
